Data reported in patent publication US20260327211A1, “MODULATORS OF A POTASSIUM CHANNEL AND OF TRPV1 CHANNEL AND USES THEREOF” (Bsense Bio Therapeutics Ltd., priority 2023, published 2026).

Experiments:
HepG2 toxicity, ATPlite = type: cell-based, human; details: human, hepg2 cells; 48 hours; read-out: HepG2 Toxicity LD50
Method: Cell culture: HepG2 cell-line cells were cultured in EMEM (ATCC 30-2033) medium supplemented with 10% fetal bovine serum (Biological Industries) in a humidified 5% CO2 incubator at 37° C.
ATPlite™ 1step Kit: ATPlite™ 1step kit (PerkinElmer) was used in a 384-wells format to assess potential liver toxicity using HepG2 cells. This is an ATP detection system based on firefly luciferase luminescence for the quantitative evaluation of proliferation and cytotoxicity of cells. ATP is a marker for cell viability because it is present in all metabolically active cells and its concentration declines very rapidly when the cells undergo necrosis or apoptosis.
According to an optimization process done to achieve uniform and consistent screening condition of molecules, the following protocol was established: Cells were seeded in 384-well, black-walled, clear-bottomed, at a density of 4000 cells per well […] and incubated overnight in their normal growth medium. On day two (48 hours before viability measurement), the tested compounds and the positive control were applied to the wells according to the plate design. […] 48 hours later, reconstituted lyophilized substrate solution was added to each well and the sealed 384-well microplate was mixed for 2 minutes at 1100 rpm in an orbital microplate and plates were incubated for 10 minutes in the dark at room temperature. Right after, luminescence was measured in the Tecan plate reader. To estimate the LD50 and LD25 values the data was fitted to sigmoidal regression using Prism-GraphPad. […]

[1] = Rat liver microsome metabolic stability; type: in vitro ADME; details: rat liver microsomes; for half-life at 1 µM: read-out: RLM T1/2
From the text: Liver microsomes which are subcellular particles derived from endoplasmic reticulum of hepatic cells were used for evaluating the tested compounds. These particles are rich in drug metabolizing enzymes, including the cytochrome p-450 family. Liver microsomes are a recommended test system for various in vitro drug metabolism and pharmacokinetics (DMPK) studies. CLint values lower than […] are considered suitable for drug development.
Liver Microsome Metabolic Stability Assay (NADPH): The liver microsome stability assay was evaluated through pre-incubation with HLMs. A liver microsome mixture (pooled from multiple donors) at a concentration of 0.5 mg/mL, and the test compound at a concentration of 1 μM, were warmed in the presence of a NADPH regenerating system (about 1.0 mM) at 37° C. Positive controls, including testosterone (a CYP3A4 substrate), propafenone (a CYP2D6 substrate), and diclofenac (a CYP2C9) substrate, were concurrently incubated with the HLMs, in the presence of the NADPH regenerating system (1.0 mM). Samples were extracted during incubation at multiple intervals: 0, 5, 15, 30, 45 and 60 minutes. To terminate the reactions, the samples were promptly mixed with cooled acetonitrile that included an internal standard (IS). An additional compound was incubated with the HLMs in the absence of the NADPH regeneration system, from which a sample was taken at the 60-minute interval.
The clearance of the test compound in the samples was subsequently analyzed by LC-MS/MS based on the peak area ratios of the analyte to the IS.
The following equation was used to calculate the microsome clearance: […]
Liver weight: 40 grams/kg, 30 grams/kg, 32 grams/kg, 20 grams/kg and 88 grams/kg, for rat, monkey, dog, human and mouse, respectively.

[2] = system: Spared Nerve Injury (SNI) rats; assay: Spared Nerve Injury (SNI) model, von Frey; type: in vivo, rat
Method: All animal experiments were carried out according to the Guide for the Care and Use of Laboratory Animals (2011 edition) and approved by the Israel National Institutional Animal Care and Use Committee (IACUC). Young adult male SD rats (Envigo RMS, Israel), were used for in vivo efficacy: Spared Nerve Injury (SNI), Distal Tibial Injury (DTI) and Post-operative Pain (POP), 200-220 grams, Chronic Post-Ischemia Pain (CPIP) 275-325 grams, Monosodium iodoacetate-induced osteoarthritis (MIA-OA) 180-220 grams; for in vivo safety: 200-250 grams at study initiation. […] The health status of the animals used in this study was examined upon their arrival. Only animals in good health were acclimatized to laboratory conditions and were used in the studies. All studies were performed following at least five days of animal acclimation. During acclimation and throughout the entire study duration, animals were housed within a limited-access rodent facility and kept in groups with a maximum of 2-3 rats per polypropylene cage. The cages were fitted with solid bottoms and filled with sterile wood shavings as bedding material. Animals were provided ad libitum with a commercial, sterile rodent diet and had free access to drinking water that was supplied to each cage via polyethylene bottles with stainless steel sipper tubes. A feed lot analysis of the diet batch used in the study was included in the archives with the study data. Water was monitored periodically. Plastic cylinders for playing and hiding and wooden balls or sticks were added to the cages for environmental enrichment.
SNI: The SNI procedure consisted of ligating and dissecting the tibial and common peroneal nerves, thus sparing the sural nerve. Prior to surgery, a dose of 0.03 mg/kg buprenorphine (Temgesic®) was administered to animals as a prophylaxis to alleviate the operative and postoperative pain unrelated to neuropathy. Next, animals were anesthetized with a combination of medetomidine/ketamine sodium IP. While under anesthesia a medio caudal incision of 4-5 mm parallel to the left femur was cut on shaved and disinfected skin. The sciatic nerve was exposed from underneath the muscle layer and isolated gently from the surrounding connective tissue, using curved and blunt forceps. The tibial and common peroneal nerves were first tightly ligated with double knot of 6-0 silk suture, proximally and immediately distal to the sciatic bifurcation. Thereafter, the nerves which run as a pair as physically attached to each other were cut at sites close to the ligatures, thereby removing a length of approximately 0.5 mm of the nerves, necessary to avoid the formation of any re-connection to the nerves. This procedure led to complete denervation of areas of tibial and peroneal innervation in the plantar paw, while neuropathy was developed upon the sural territories. Special care was taken not to manipulate the sural nerve, which thus was left intact. The muscle layers and skin were sutured, and animals were allowed to recover. 0.03 mg/kg buprenorphine SC was administered on postoperative days 1-2, every 12 hours, starting from the evening of Day 0. Rehydration with 4 ml of sterile saline IP was provided directly after the surgery, continuing twice a day for 7 days. The sural nerve innervates the lateral longitudinal third of the plantar paw and therefore, mechanical sensitivity was assessed in this area.
The selection of animals was performed on day 13 post-operation before animals were placed in their experimental groups. Animals with a pain threshold of <4 grams for an operated leg following Von Frey testing were included in the study. To form homogenous treatment groups, all the selected animals were grouped using a random sampling method on study day 13, to form groups with similar pain threshold mean. For blinding purposes, the researcher who dosed the animals with test items was different than the researcher who conducted the VF tests. […]

Compound | CLint scaled at 1 µM [1] [mL/min/kg] | half-life at 1 µM [1] [min] | CC50 at 48 h (HepG2 toxicity, ATPlite) [µM] | PWT efficacy ([2]; 2 mg/kg PO) | Reversal of PWT ([2]; 20 mg/kg PO, 4 hour post-dose) [%] | PWT efficacy ([2]; 20 mg/kg PO, up to 8 hour post-dose) | Reversal of mechanical PWT ([2]; 100 mg/kg oral, 6 hour post-dose) [%] | Pain relief in SNI ([2]; 3-30 mg/kg PO) | minimal effective dose ([2]; Rattus norvegicus, po) [mg/kg]
Cc1cn(-c2ccc(F)c(CC(=O)NCC(C)(C)O)c2)c2c(Cl)cc(Cl)cc12 [Compound 421] | 177 | 14.1 | > 1 | – | – | – | – | – | –
O=C(Cc1cc(-n2cc(Cl)c3cc(Cl)cc(Cl)c32)ccc1F)NCCO [Compound 627] | 63.5 | 39.3 | 3.37 | – | – | – | – | – | –
O=C(Cc1nccc(-n2cc(Cl)c3cc(Cl)cc(Cl)c32)n1)NC1COCC1O (centres unmarked) [Compound 760] | – | 11.9 | – | – | – | – | – | pain relief comparable to Pregabalin's high and impairing dose | 3 to 30

The next lines start with results.

CLint scaled at 1 µM [1] [mL/min/kg] | half-life at 1 µM [1] [min] | Compound | CC50 at 48 h (HepG2 toxicity, ATPlite) [µM] | PWT efficacy ([2]; 2 mg/kg PO) | Reversal of PWT ([2]; 20 mg/kg PO, 4 hour post-dose) [%] | PWT efficacy ([2]; 20 mg/kg PO, up to 8 hour post-dose) | Reversal of mechanical PWT ([2]; 100 mg/kg oral, 6 hour post-dose) [%] | Pain relief in SNI ([2]; 3-30 mg/kg PO) | minimal effective dose ([2]; Rattus norvegicus, po) [mg/kg]
527 | 4.7 | O=C(Cc1cncc(-n2cc(Cl)c3cc(Cl)cc(Cl)c32)c1)N[C@@H]1COC[C@H]1O [Compound 661] | > 16.6 | although not reaching statistical significance, showed an efficacious trend | 53 | remained statistically significant up to 8 hour post-dose | 47.2 | – | –
– | 2.5 | CC(C)c1cc(Cl)cc(Cl)c1Nc1ccc(F)c(CC(=O)NCC(C)(C)O)c1 [NH91, reference compound] | – | – | – | – | – | – | –
